Reference: patent publication US20240094229A1, “CRISPR-CAS /TRANSCRIPTION FACTOR-BASED COMPETITION ASSAY FOR DETECTION OF MOLECULAR ANALYTES” (Arizona Board of Regents on Behalf of Arizona State …, priority 2022, published 2024)
“And” between values parts separate entries of the source, which are not always exact repeats. Identical values can stand only once. Counter-ions that a name gives are not always drawn.

Experiments:
MphR = MphR biosensor, lateral flow readout for erythromycin; assay type: biochemical; details: 15 minutes of cleavage
Method: DNA/TF/small molecule samples were incubated and added to Cas12a reactions containing 106 nM Cas12a, 100 nM gRNA, and 200 nM FAM-[…]-Biotin (SEQ ID NO: 38) or 5′FAM-TTTT(internal T-Biotin)TTTTT-BHQ1 (SEQ ID NO: 38) reporter (IDT). The Cas12a concentration was increased to speed up the reaction time. […] The 10 μl samples were added directly to the dipstick, HybriDetect Universal Lateral Flow Assays from Milenia Biotec (MGHD1) and placed in 100 μl of LF running buffer containing 50% PEG 800. PEG was used to slow capillary flow down, giving reporter strands more time to interact with gold nanoparticle-antibody conjugates before flowing down the assay. This provided cleaner negative results. After 2 minutes, dipsticks were removed and imaged using a cellphone camera.
The robustness of the lateral flow readout scheme was further tested using the TF MphR to detect the antibiotic erythromycin. […] A closer look at the mean pixel intensity of the bands for the assays for 1, 0.5, 0.25, 0.05 μM and no SM confirm a decrease below 1 μM but show a readable signal in the ˜100 nM range (FIG. 14B). Lateral flow readout was also tested using the LacI-IPTG biosensor. A higher ratio between the IPTG+ and − samples were seen even with high concentrations of Lad, but a discernible difference in SM+ samples was still visualized (FIG. 15).

TetR [1] = molecular target: T1, TetR (Escherichia coli, UniProt P04483); test: TetR biosensor, lateral flow readout; assay type: biochemical; details: for second (test) band on lateral flow strip: TetR biosensor, 20-nt gRNA, 30 minutes cleavage
T1 construct: His tag; made in house; host or cells: E. coli BL21 Star (DE3)
T1 sequence (P04483 whole entry): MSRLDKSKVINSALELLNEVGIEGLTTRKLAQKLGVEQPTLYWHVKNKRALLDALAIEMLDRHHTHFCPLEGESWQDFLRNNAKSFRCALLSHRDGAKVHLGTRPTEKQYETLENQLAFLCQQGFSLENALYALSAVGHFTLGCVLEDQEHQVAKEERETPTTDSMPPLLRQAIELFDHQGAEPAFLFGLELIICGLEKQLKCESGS
Method: DNA/TF/small molecule samples were incubated and added to Cas12a reactions containing 106 nM Cas12a, 100 nM gRNA, and 200 nM FAM-[…]-Biotin (SEQ ID NO: 38) or 5′FAM-TTTT(internal T-Biotin)TTTTT-BHQ1 (SEQ ID NO: 38) reporter (IDT). The Cas12a concentration was increased to speed up the reaction time. Samples were incubated for 30 minutes at 37° C. on a thermocycler block. The 10 μl samples were added directly to the dipstick, HybriDetect Universal Lateral Flow Assays from Milenia Biotec (MGHD1) and placed in 100 μl of LF running buffer containing 50% PEG 800. PEG was used to slow capillary flow down, giving reporter strands more time to interact with gold nanoparticle-antibody conjugates before flowing down the assay. This provided cleaner negative results. After 2 minutes, dipsticks were removed and imaged using a cellphone camera.
The trans-cleavage capabilities of Cas12a can cleave any single-stranded DNA in the system, enabling a variety of chemical modifications to be used in the single-stranded reporter. This feature allows for implementation of a visible paper-based lateral flow readout system using reporters with FAM and biotin modifications on either end (19, 21-26). When paired with a lateral flow assay, the fully intact reporter binds to the first line (control line) along with an attached gold nanoparticle/antibody complex, and can be visualized, as shown in FIG. 10. When Cas12a enzyme is active, the reporter is cleaved and the portion containing the gold nanoparticle flows down the assay and can be visualized by the formation of the second band. Thus, the presence of two bands is used to indicate the presence of the target small molecule.
Next, the lateral flow readout was tested by introducing aTc, Doxy, and IPTG to the TetR biosensor. The samples were incubated with Cas12a cleavage mixture containing the 20-nt gRNA. […] Thus, the lateral flow assay can provide a visual readout mechanism for the biosensor, and the assay remains small-molecule specific.
To ensure the biosensor could provide adequate sensitivity, limit of detection experiments were repeated using TetR for detecting aTc and Doxy on the lateral flow assays.

Cas12a = test: Toxicity study for DMSO on Cas12a activation; assay type: biochemical, Lachnospiraceae bacterium; details: 0.03% DMSO
Method: The toxicity of solvents on Cas12a activation was tested by titrating in DMSO and monitoring the fluorescence output over two hours. A more significant decrease in activation was observed above 1% DMSO.

TetR [2] = molecular target: T1, TetR; test: TetR biosensor, Cas12a cleavage reaction with fluorescence readout, detection of aTc and Doxy; assay type: biochemical
Method: (§1) Target and nontarget strands (NTS) were annealed at a 1:2 ratio in 1× TAE+12.5 mM Mg^2+ for 5 minutes at 95° C., then snap cooled. To form the DNA/TF complex, 100 nM dsTarget complexes were incubated with 10 μM corresponding transcription factors (unless otherwise stated) for 15 minutes at 37° C. in incubation buffer (40 mM Tris-HCl 8 mM MgCl2, 20 mM NaCl, pH 8). Small molecules were added next, following the same incubation procedure. Prior to addition, small molecules were suspended in water, DMSO or ethanol.
(§2) To monitor small molecule detection, 2 μl of the DNA/TF or DNA/TF/SM mixture were added to 10 μl total Cas12a cleavage reaction. […] Cleavage reactions were then immediately added to a microplate such as a Corning 384-well Black Flat Bottom Plates and read on a SynergyNeo2 Biotek fluorescence plate reader. Fluorescence measurements were taken with 487 nm excitation, 528 nm emission from the bottom of the plate for 2 hours. Fluorescence curves show raw fluorescence images unless otherwise stated.
(§3) Dose response curves were fit on OriginLab graphing software using equation 1. A1 is the minimum asymptote, A2 is the maximum asymptote, X is the log of a given dosage, and p is the hill slope. The center of the curve is equal to Log x0, so the half response or EC 50=10^Logx0.
The limit of detection for the biosensor was tested by introducing a range of small molecules from 4 nM to 40 μM using a 50:1 TetR dimer/dsDNA ratio (FIGS. 3E and F). […] The dose response curve of the biosensor was further assessed using the EC 50 value, which represents the concentration of a drug or analyte needed to reach a half maximum output signal based on a protein-analyte interaction.
Detection limits were also considered using the standard definition of LOD which considers LOD to be equal to the fluorescence of the blank sample plus three times the standard deviation (Table 7 and Table 8). The detection limit was determined using the equation (39):
Here, Sbl is equal to the mean of the SM negative samples and kSbl is the number of standard deviations of the negative sample added. For the Doxy experiments, 8 replicates were run and k=3. […] The detection limit (bolded) was then determined as the lowest concentration corresponding to a fluorescence signal great than Sm (the mean of small molecule negative samples+3× the standard deviation).

CymR = molecular target: T2, CymR (Pseudomonas putida, UniProt O33453, A171V/S110G); assay type: biochemical; details: CymR biosensor, slope of kinetic curves
T2 construct: His tag; made in house
T2 sequence (O33453 whole entry S110G/A171V): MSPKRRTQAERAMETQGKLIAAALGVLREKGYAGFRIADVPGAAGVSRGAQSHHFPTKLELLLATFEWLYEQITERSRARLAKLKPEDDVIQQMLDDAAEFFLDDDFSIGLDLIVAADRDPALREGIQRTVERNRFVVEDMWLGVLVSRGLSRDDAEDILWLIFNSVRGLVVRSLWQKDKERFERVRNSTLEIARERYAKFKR
Method: as §1, §2, §3

[3] = 10 μM TetR, 50:1 TetR dimer/dsDNA ratio
[4] = EC 50, 10 μM TetR, 50:1 TetR dimer/dsDNA ratio, small molecule 4 nM to 40 μM
[5] = EC:50, 5 nM dsDNA, 500 nM TF (TetR), 24 nt gRNA, 1 h
[6] = EC:50, 50 nM dsDNA, 5 μM TF (TetR), 20 nt gRNA, 30 minutes of cleavage
[7] = EC:50, 50 nM dsDNA, 5 μM TF (TetR), 24 nt gRNA, 1 h
[8] = EC:50, 100 nM dsDNA, 2 μM TF (TetR), 1 h
[9] = EC:50, 100 nM dsDNA, 10 μM TF (TetR), 1 h, 50-fold TetR dimer:DNA
[10] = EC:50, 100 nM dsDNA, 20 μM TF (TetR), 1 h

SMILES	second (test) band on lateral flow strip (TetR [1])	EC50 (TetR [2]; [4]) [nM]	EC50 (TetR [2]; [5])	EC50 (TetR [2]; [6]) [nM]	EC50 (TetR [2]; [7]) [nM]	EC50 (TetR [2]; [8]) [nM]	EC50 (TetR [2]; [9]) [nM]	EC50 (TetR [2]; [10])	EC50 (TetR [1]) [nM]	other results
CC[C@H]1OC(=O)[C@H](C)[C@@H](O[C@H]2C[C@@](C)(OC)[C@@H](O)[C@H](C)O2)[C@H](C)[C@@H](O[C@@H]2O[C@H](C)C[C@H](N(C)C)[C@H]2O)[C@](C)(O)C[C@@H](C)C(=O)[C@H](C)[C@@H](O)[C@]1(C)O [Erythromycin]	–	–	–	–	–	–	–	–	–	concentration range with readable signal (mean pixel intensity) (MphR): ~100 nM
CC(C)S[C@@H]1O[C@H](CO)[C@H](O)[C@H](O)[C@H]1O [IPTG, isopropyl β-D-1-thiogalactopyranoside]	little to no banding	–	–	–	–	–	–	–	–	–
C[S+](C)[O-] [DMSO]	–	–	–	–	–	–	–	–	–	effects on Cas12a cleavage at experimental levels (Cas12a): not detrimental
Cc1c2c(c(O)c3c(O)cccc13)C(=O)[C@]1(O)C(=O)C(C(N)=O)=C(O)[C@@H](N(C)C)[C@@H]1C2 [aTc, anhydrotetracycline-HCl]	strong second band	4230	50 nM	1510	1770	840	4420	10600 nM	380	concentration at complete loss of signal (TetR [2]; [3]): 0.4 µM; concentration giving maximum (near maximum) fluorescence output (TetR [2]; [3]): 10 µM; Fluorescence Mean (TetR [2]; 20 nt gRNA, Concentration 0.005 (unit not given)): 21303.25; Fluorescence Mean (TetR [2]; 20 nt gRNA, Concentration 0.01 (unit not given)): 21302; Fluorescence Mean (TetR [2]; 20 nt gRNA, Concentration 0.05 (unit not given)): 24918.25; Fluorescence Mean (TetR [2]; 20 nt gRNA, Concentration 0.1 (unit not given)): 32806; Fluorescence Mean (TetR [2]; 20 nt gRNA, Concentration 1 (unit not given)): 40622.5; Fluorescence Mean (TetR [2]; 24 nt gRNA, Concentration 0.005 (unit not given)): 9199.5; Fluorescence Mean (TetR [2]; 24 nt gRNA, Concentration 0.01 (unit not given)): 8795; Fluorescence Mean (TetR [2]; 24 nt gRNA, Concentration 0.05 (unit not given)): 12129.5; Fluorescence Mean (TetR [2]; 24 nt gRNA, Concentration 0.1 (unit not given)): 20059; Fluorescence Mean (TetR [2]; 24 nt gRNA, Concentration 1 (unit not given)): 30309.5; EC50 (TetR [2]; EC:50, 5 nM dsDNA, 500 nM TF (TetR), 20 nt gRNA, 30 minutes of cleavage): 51 nM; concentration showing a discernible signal (TetR [1]; lateral flow, 30 minutes of cleavage): 400 nM
CC(C)c1ccc(C(=O)O)cc1 [cuminic acid]	–	–	–	–	–	–	–	–	–	linear region of cleavage rate vs SM concentration (calibration curve) (CymR): ≤ 50 µM
C[C@H]1c2cccc(O)c2C(=O)C2=C(O)[C@]3(O)C(=O)C(C(N)=O)=C(O)[C@@H](N(C)C)[C@@H]3[C@@H](O)[C@@H]21 [Doxy, doxycycline]	–	766	87 nM and 88 nM	430	1590	110	950	4000 nM and 4220 nM	27	–
